Values of other authors as cited in publication PMC3892053, “Pharmacokinetic/pharmacodynamic modeling for the determination of a cimicoxib dosing regimen in the dog” (BMC Veterinary Research, 2013).
Read-outs that look alike come from different tables or passages of the source.

How the values were obtained:
[1] = cited from earlier work
[2] = test system: nociceptive threshold; set-up: method as in PMID 19186002; conditions: rats, given systemically; cited from earlier work
[3] = test system: COX-1/COX-2; conditions: cited from earlier work; for greater potency for COX-2 inhibition: highly selective COX-2 inhibitors
[4] = test system: g.i.t side effects; set-up: method as in PMID 16871494; conditions: large scale survey, mainly vomiting; cited from earlier work
[5] = test system: wound healing; set-up: method as in PMID 19175721; conditions: mechanism independent of prostaglandin synthesis; cited from earlier work
[6] = population PK survey in osteoarthritic dogs
[7] = as quoted in Discussion, no reference given

NS(=O)(=O)c1ccc(-n2nc(C(F)(F)F)cc2-c2ccc(F)cc2)cc1 [mavacoxib]
half-life ([1]; dog, in vivo): 415 h | plasma clearance ([1]; dog, in vivo): 2.7 mL/kg/h | half-life of some beagle dogs ([1]; laboratory beagle dogs): > 30 days | terminal half-life in some dogs (5% of the population) [1, 6]: exceeded 80 days | terminal half-life, extreme values [1, 6]: up to 140 days | typical terminal half-life (population mean) [1, 6]: 44 days

CC(C(=O)O)c1ccc2c(c1)[nH]c1ccc(Cl)cc12 (stereo not drawn) [Carprofen]
half-life ([1]; dogs): about 9 h

COc1ccc2c(c1)c(CC(=O)O)c(C)n2C(=O)c1ccc(Cl)cc1 [indomethacin]
hypoalgesia (ipsilateral nociceptive threshold raised above basal values) [2]: not observed

CN1C(C(=O)Nc2ccccn2)=C(O)c2ccccc2S1(=O)=O [piroxicam]
hypoalgesia (ipsilateral nociceptive threshold raised above basal values) [2]: not observed

Cc1ccc(-c2cc(C(F)(F)F)nn2-c2ccc(S(N)(=O)=O)cc2)cc1 [celecoxib]
hypoalgesia (ipsilateral nociceptive threshold raised above basal values) [2]: induced a state of hypoalgesia

CC1(C)OC(=O)C(OCC2CC2)=C1c1ccc(S(C)(=O)=O)cc1 [firocoxib]
greater potency for COX-2 inhibition [3]: more than 100 fold | COX-1/COX-2 selectivity index ([3]; whole blood assay): 384 | withdrawal rate associated with g.i.t side effects [4]: 2.9 % of dogs | effect on wound healing [5]: slow down wound healing | half-life [1, 7]: 7 h | plasma clearance ([1]; dog): 462 mL/kg/h | half-life ([1]; mixed-breed dogs): 5.9 h

CCc1ccc(Nc2c(F)c(F)cc(F)c2F)c(CC(=O)O)c1 [robenacoxib]
greater potency for COX-2 inhibition [3]: more than 100 fold | half-life [1, 7]: 1 h | half-life ([1]; beagle dogs): 0.63 h | plasma clearance ([1]; dog): 810 mL/kg/h
